Assay results from the supplement of paper PMC3493320.

Key:
[1] = test system: NCI-H295R; experiment: maximal response (efficacy) relative to DMSO (0%) and doxorubicin (-100%); higher = less growth inhibition; conditions: 48 h
[2] = test system: NCI-H295R; experiment: IC50 (antiproliferative, ATP content); conditions: 48 h

SMILES | maximal response [1] [%] | IC50 [2] [µM]
COC(C(=O)C(O)C(C)O)C1Cc2cc3cc(OC4CC(OC5CC(O)C(O)C(C)O5)C(O)C(C)O4)c(C)c(O)c3c(O)c2C(=O)C1OC1CC(OC2CC(OC3CC(C)(O)C(O)C(C)O3)C(O)C(C)O2)C(O)C(C)O1 (stereo not given) | -125 | 1.19
Cc1cc(O)c2c3c4c(cc(O)c13)C(C)(C)C(=O)c1c(O)cc(O)c(c1-4)C2=O | -103 | 3.35
Oc1c(Br)cc(Br)c2cccnc12 | -80.8 | 6.68
CC(=O)Nc1ccc(NC(=S)NC(=O)c2ccc(C(C)(C)C)cc2)cc1 | -151 | 21.1
CC(=O)[C@]1(O)Cc2c(O)c3c(c(O)c2[C@@H](O[C@H]2C[C@H](N)[C@H](O)[C@H](C)O2)C1)C(=O)c1ccccc1C3=O.Cl | -121 | 1.68
CC1(COc2ccc(CC3SC(=O)NC3=O)cc2)CCCCC1 (stereo not given) | -167 | 26.6
[K+].[K+].[O]=[Cr](=[O])([O-])[O][Cr](=[O])(=[O])[O-] | -166 | 11.9
COc1cc([C@@H]2c3cc4c(cc3C(O[C@@H]3O[C@@H]5COC(c6cccs6)O[C@H]5[C@H](O)[C@H]3O)C3COC(=O)[C@@H]32)OCO4)cc(OC)c1O (stereo not given in full) | -94.9 | 8.41
[Na+].[Na+].[O-]C(=O)c4c(Cl)c(Cl)c(Cl)c(Cl)c4C=2c3cc(I)c([O-])c(I)c3OC=1C=2\C=C(\I)C(=O)C=1I | -153 | 23.7
O=C1C2CC=CCC2C(=O)N1SC(Cl)(Cl)Cl (stereo not given) | -105 | 16.8
COc1cc(N[S+](C)(=O)[O-])ccc1Nc1c2ccccc2nc2ccccc12 | -65.5 | 3.76
O=C(N[C@H](C(N[C@H](C(N[C@@H](C(N[C@H](C(N[C@@H](CCCNC(N)=N)C(N6CCC[C@H]6[C@](NCC)=O)=O)=O)CC(C)C)=O)CC4=CNC5=C4C=CC=C5)=O)CC3=CC=C(O)C=C3)=O)CO)[C@@H](NC([C@@H](N[C@]([C@@H](N8)CCC8=O)=O)CC7=CNC=N7)=O)CC1=CNC2=C1C=CC=C2.O=C(C)O | -124 | 5.31
C[C@@H](C)[C@H]1C3=C(C=C(F)C=C3)CC[C@@](OC(COC)=O)1CCN(C)CCCC4=NC2=C(N4)C=CC=C2.Cl.Cl | -126 | 10.6
CO[C@@]12[C@H](COC(N)=O)C3=C(C(=O)C(C)=C(N)C3=O)N1C[C@@H]1N[C@@H]12 | -132 | 26.6
[C@@]82([C@@]([C@@H](/C1=C/C(=O)OC1)CC2)(CC[C@@H]9[C@]7(CCC(O[C@@H]3O[C@@H]([C@H]([C@H](C3)O)O[C@@H]6O[C@@H]([C@@H](O[C@@H]5O[C@@H]([C@@H](O[C@H]4[C@@H]([C@@H](O)[C@@H]([C@H](O4)CO)O)O)[C@H](C5)OC(=O)C)C)[C@H](C6)O)C)C)C[C@H]7CC[C@@H]89)C)C)O (stereo not given in full) | -114 | 0.188
S=c1[nH]cnc2[nH]cnc12 | -71.8 | 2.37
O=C(OC[C@H]1O[C@@H](OC(=O)c2cc(O)c(O)c(OC(=O)c3cc(O)c(O)c(O)c3)c2)[C@H](OC(=O)c2cc(O)c(O)c(OC(=O)c3cc(O)c(O)c(O)c3)c2)[C@@H](OC(=O)c2cc(O)c(O)c(OC(=O)c3cc(O)c(O)c(O)c3)c2)[C@@H]1OC(=O)c1cc(O)c(O)c(OC(=O)c2cc(O)c(O)c(O)c2)c1)c1cc(O)c(O)c(OC(=O)c2cc(O)c(O)c(O)c2)c1 | -122 | 7.5
C[C@@]12C(=O)OC(=O)[C@]1(C)C1CCC2O1 | -114 | 1.43
Cl.O=C1CSC2(CCN(CCCN3c4ccccc4Sc4ccc(Cl)cc43)CC2)N1 | -136 | 21.1
Oc1c(I)cc(I)c2cccnc12 | -82.7 | 5.31
CCc1oc2ccccc2c1C(=O)c1cc(I)c(O)c(I)c1 | -101 | 7.5
CC[C@@]1(O)C(=O)OCc2c1cc1n(c2=O)Cc2cc3c([N+](=O)[O-])cccc3nc2-1 | -91.1 | 16.8
COC(COC(N)=O)C1=C(N2CC2)C(=O)C(C)=C(N2CC2)C1=O (stereo not given) | -120 | 0.75
CC[C@]2(O)CC[C@H]3[C@@H]4CC\C1=C\CCC[C@@H]1[C@H]4CC[C@]23C | -60.8 | 16.8
Cl.Nc1c2ccccc2nc2ccccc12.O | -131 | 18.8

SMILES | maximal response [1] [%] | IC50 [2] [µM]
CCOC(=O)N1CCC(=C2c3ccc(Cl)cc3CCc3cccnc32)CC1 | -151 | 29.9
CS(=O)(=O)O.Cc1ccc(NC(=O)c2ccc(CN3CCN(C)CC3)cc2)cc1Nc1nccc(-c2cccnc2)n1 | -61.7 | 18.8
Cc1cc(C2CCCCC2)n(O)c(=O)c1.NCCO | -61.1 | 0.64
C=CCNC1=C2C[C@@H](C)C[C@H](OC)[C@H](O)[C@@H](C)/C=C(\C)[C@H](OC(N)=O)[C@@H](OC)/C=C\C=C(/C)C(=O)NC(=CC1=O)C2=O | -105 | 8.41
Oc1c(Cl)cc(Cl)c(Cl)c1Cc1c(O)c(Cl)cc(Cl)c1Cl | -121 | 15
CC1(CN2CCC(n3c(=O)[nH]c4ccccc43)CC2)OCc2ccccc2-n2cccc21 (stereo not given) | -96.9 | 26.6
COc1ccc(CN2CCN(C(c3ccc(F)cc3)c3ccc(F)cc3)CC2)c(OC)c1OC | -95.1 | 21.1
Nc1nc(N)c2nc(CNc3ccc(C(=O)N[C@@H](CCC(=O)O)C(=O)O)cc3)cnc2n1 | -79.1 | 8.41
Cc1cc2c(C(C)C)c(O)c(O)c(C=O)c2c(O)c1-c1c(C)cc2c(C(C)C)c(O)c(O)c(C=O)c2c1O | -127 | 10.6
O=c1oc2ccccc2c(O)c1C(CC(O)c1ccc(-c2ccc(Br)cc2)cc1)c1ccccc1 (stereo not given) | -115 | 9.44
COc1cc(NCCCC(C)N)c2ncccc2c1 (stereo not given) | -124 | 2.37
Cc1cc(CC(C)CC(C)(C)C)n(O)c(=O)c1.NCCO (stereo not given) | -96.2 | 23.7
O=C(Nc1cccc(C(F)(F)F)c1)c1cc(Br)cc(Br)c1O | -140 | 5.96
C=C1/C(=C\C=C2/CCC[C@]3(C)[C@@H]([C@H](C)CCCC(C)C)CC[C@@H]23)C[C@@H](O)C[C@@H]1O | -142 | 23.7
C=C1CC[C@H](O)C/C1=C/C=C1\CCC[C@]2(C)[C@@H]([C@H](C)CCCC(C)(C)O)CC[C@@H]12 | -166 | 26.6
CO[C@H](C(=O)[C@@H](O)[C@@H](C)O)[C@@H]1Cc2cc3cc(O[C@H]4C[C@@H](O[C@H]5C[C@@H](O)[C@H](O)[C@@H](C)O5)[C@@H](O)[C@@H](C)O4)c(C)c(O)c3c(O)c2C(=O)[C@H]1O[C@H]1C[C@@H](O[C@H]2C[C@@H](O[C@H]3C[C@](C)(O)[C@H](O)[C@@H](C)O3)[C@H](O)[C@@H](C)O2)[C@H](O)[C@@H](C)O1 | -118 | 0.944
Cc1c2oc3c(C)ccc(C(=O)N[C@@H]4C(=O)N[C@H](C(C)C)C(=O)N5CCC[C@H]5C(=O)N(C)CC(=O)N(C)[C@@H](C(C)C)C(=O)O[C@H]4C)c3nc-2c(C(=O)N[C@@H]2C(=O)N[C@H](C(C)C)C(=O)N3CCC[C@H]3C(=O)N(C)CC(=O)N(C)[C@@H](C(C)C)C(=O)O[C@H]2C)c(N)c1=O | -113 | 0.376
O=C([C@](C(C=C4OC)=C(C=C4OC)OC3)([H])[C@]3([H])O2)C(C=C5)=C2C1=C5O[C@@H]([C@@](C)=C)C1 | -69.2 | 0.75
CCCCC(=O)OCC(=O)[C@]1(O)Cc2c(O)c3c(c(O)c2[C@@H](O[C@H]2C[C@H](NC(=O)C(F)(F)F)[C@H](O)[C@H](C)O2)C1)C(=O)c1c(OC)cccc1C3=O | -71.8 | 13.3
CCCCCCCCN[C@H](C)C(O)c1ccc(SC(C)C)cc1 (stereo not given in full) | -137 | 21.1
Cc1cc(/C=C/c2ccc3cc(N(C)C)ccc3[n+]2C)c(C)n1-c1ccccc1.Cc1cc(/C=C/c2ccc3cc(N(C)C)ccc3[n+]2C)c(C)n1-c1ccccc1.O=C([O-])c1cc2ccccc2c(Cc2c(O)c(C(=O)[O-])cc3ccccc23)c1O | -69.7 | 7.18
CO[C@@H]1[C@H](C)O[C@@H](O[C@H]2C[C@@H](Oc3cc4cc5c(c(O)c4c(O)c3C)C(=O)[C@H](O[C@@H]3C[C@H](O[C@@H]4C[C@H](O[C@@H]6C[C@@](C)(O)[C@H](OC(C)=O)[C@@H](C)O6)[C@@H](O)[C@H](C)O4)[C@@H](O)[C@H](C)O3)[C@@H]([C@@H](OC)C(=O)[C@H](O)[C@H](C)O)C5)O[C@@H](C)[C@H]2OC(C)=O)C[C@@H]1O | -111 | 1.06
O=[C@@]([C@@H]4C3=CC(C(C1=CC=CC(O)=C12)=O)=C(C(O)=C3[C@@H](O[C@@H]7O[C@H]([C@H]([C@@H](N(C)C)C7)O[C@H](O6)C[C@@H]([C@@H]([C@@H]6C)O[C@H](O5)CCC([C@@H]5C)=O)O)C)C[C@](CC)4O)C2=O)OC.Cl | -122 | 0.944
OC[C@H]1O[C@@H](n2cnc3c(S)ncnc32)[C@H](O)[C@@H]1O | -68.2 | 2.99
CN(C)C(=O)CCSC(SCCC(=O)[O-])c1cccc(/C=C/c2ccc3ccc(Cl)cc3n2)c1.[Na+] (stereo not given) | -77.8 | 26.6
